Results as given in patent publication US20110212108A1, “NEUREGULIN/ERBB SIGNALING AND INTEGRIN” (THE REGENTS OF THE UNIVERSITY OF CALIFORNIA, priority 2008, published 2011).
Substitutions are numbered along the chain they refer to. Entries after “also recorded” stand apart in the source; their conditions may differ.

T1: CHO cells that express human β3 (β3-CHO) (Homo sapiens, UniProt P05106)
T1 construct: expressed in transfected cells; host or cells: CHO
T1 sequence (P05106 27-788): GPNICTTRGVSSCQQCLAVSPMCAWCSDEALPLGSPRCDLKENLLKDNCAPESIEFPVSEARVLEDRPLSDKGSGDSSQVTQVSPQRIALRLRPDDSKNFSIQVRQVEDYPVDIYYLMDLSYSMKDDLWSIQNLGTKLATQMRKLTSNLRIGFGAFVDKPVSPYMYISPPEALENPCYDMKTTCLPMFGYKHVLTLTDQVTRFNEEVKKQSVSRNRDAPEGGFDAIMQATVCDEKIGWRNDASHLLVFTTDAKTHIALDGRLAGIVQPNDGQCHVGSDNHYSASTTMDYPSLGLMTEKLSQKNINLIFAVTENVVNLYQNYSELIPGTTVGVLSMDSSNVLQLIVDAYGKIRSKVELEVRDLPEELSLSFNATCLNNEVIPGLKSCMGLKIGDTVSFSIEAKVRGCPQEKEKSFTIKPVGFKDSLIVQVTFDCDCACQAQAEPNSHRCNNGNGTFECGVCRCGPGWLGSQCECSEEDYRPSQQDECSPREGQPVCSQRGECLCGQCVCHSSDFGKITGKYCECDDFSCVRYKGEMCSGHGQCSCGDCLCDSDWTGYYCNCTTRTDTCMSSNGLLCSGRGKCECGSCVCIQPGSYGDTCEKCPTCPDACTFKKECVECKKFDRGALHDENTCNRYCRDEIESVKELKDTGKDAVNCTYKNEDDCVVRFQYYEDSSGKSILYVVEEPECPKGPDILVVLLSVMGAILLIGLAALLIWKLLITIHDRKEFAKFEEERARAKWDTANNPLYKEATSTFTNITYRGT

B1: WT NRG1α (175-241): wild type human neuregulin 1 fragment, residues 175-241 of SEQ ID NO:4 (SEQ ID NO:5), entire EGF-like motif and α domain (protein)
chain: GTSHLVKCAEKEKTFCVNGGECFMVKDLSNPSRYLCKCQPGFTGARCTENVPMKVQNQEKAEELYQK
modifications: integrin-binding site within human neuregulin, residues 175-241of human neuregulin 1alpha, long version
B2: 3KE (175-241): NRG1α (175-241) with Lys181/Lys185/Lys187 mutated to Glu, SEQ ID NO:6 (3KE, long version) (protein)
chain: B1 chain with K7E, K11E, K13E
modifications: integrin-binding site within human neuregulin, residues 175-241of human neuregulin 1alpha, long version, 3KE mutant

What was measured:
Type in all cases: cell-based
M21 human melanoma cells = test: Western blotting of signaling in M21 cells; details: 10 ng/ml; for ERK1/2 activation in M21 cells / ErbB3 phosphorylation in M21 cells: 15 min
Method: FIG. 9. Effect of the 3KE (175-222) mutation on ErbB3 phosphorylation, ERK1/2 activation, and cyclin D1 levels in M21 human melanoma cells. Cells were cultured in DMEM+1% FBS medium for 24 h, and then treated with 3KE or WT NRG1 (175-222) (10 ng/ml, if concentrations were not indicated) for 15 min (if time is not specified). Cell lysates were analyzed by Western blotting.
(§1) Cell proliferation: cells were starved by culturing DMEM with low-level FCS (e.g., 0.4%) overnight and then treated with the wt or mutant NRG1 (175-222) (up to 100 ng/ml). The cells were harvested in 15 min to 6 h after stimulation and cell lysates analyzed by western blotting with antibodies specific to signaling molecules. Alternatively, cells were cultured for 24-48 h after stimulation for testing proliferation or cell viability by MTS assays. Statistical analysis and calculation of kinetic constants were performed using Prism software (Graphpad).
Signaling: The levels of cell proliferation were measured by MTS assays and the kinetic data were analyzed by using Prism software (Graphpad). Melanoma cells were cultured in the presence of wt or mutant NRG1 (175-222), and the levels of ErbB2 and B3 phosphorylation, MAP kinase activation, or activation of other signaling molecules in the cell lysates were monitored by immunoprecipitating ErbB2 and B3 from the lysates and detecting tyrosine phosphorylation by western blotting with anti-phosphotyrosine antibodies (the IP-Western method) for ErbB2 and B3. Alternatively, anti-phospho ErbB2 or B3 antibodies (commercially available) and anti-phospho ERK1/2 antibodies were used.

[1] = tested on: Human MCF-7 breast cancer cells; test: MCF-7 cell proliferation, MTS assay; details: serum-starved overnight, cultured 48 h, P=0.0018
Method: FIG. 12. Effect of wt and 3KE NRG1 (175-222) on the proliferation of MCF-7 cells. Human MCF-7 breast cancer cells were serum-starved overnight and cultured 48 h with wt or mutant GST-NRG1 (175-222). Cell proliferation was measured by using MTS assays. […] P=0.0018 by 2-way ANOVA.
as §1

[2] = target: T1, CHO cells that express human β3 (β3-CHO); test: Cell adhesion assay, β3-CHO cells
Method: CHO or K562 cells expressing different recombinant integrins were previously known and available (Zhang et al. 1998; Tarui et al. 2006). Labeling of proteins with FITC or […] was performed according to manufacturers' instructions. Flow cytometry was performed as described above.
Cell adhesion and soluble integrin binding assays were performed as described previously (Mori, et al., 2008). NRG1α (175-241) was immobilized to wells of 96-well microtiter plate overnight at 4° C. in 0.1 M carbonate buffer, pH 2 9.4. Remaining protein binding sites were blocked by incubating with 200 μl of 0.1% BSA in PBS for 60 min at room temperature. Wells were then incubated with soluble integrin αvβ3 in 50 μl in Hepes-Tyrode's buffer supplemented with 1 mM Mn2+ at room temperature for 60 min. After rinsing the wells with the same buffer, bound integrins were determined by horseradish peroxidase (HRP)-conjugated anti-His tag mouse IgG and substrate 3,3′,5,5′-tetramethylbenzidine of HRP.

αvβ3-ErbB3 complex = target: T2, αvβ3-ErbB3 complex (Homo sapiens, UniProt P05106+P06756+P21860); test: Co-immunoprecipitation of integrin αvβ3 and ErbB3 in MCF-7 cells; details: for Co-precipitation of integrin β3 with ErbB3 in MCF-7 cells: 5 nM, 5-30 min
T2 construct: endogenous in cells; host or cells: MCF-7
Method: FIG. 21. WT NRG1α (175-241) induced co-precipitation of integrin αvβ3 and ErbB3, while 3KE (175-241) is defective in this function. a) MCF-7 cells were serum-starved overnight and stimulated with WT or 3KE NRG1α (175-241) at indicated time points. In the present invention, 1 mg protein of cell lysate was used for immuno-precipitation of the αvβ3-ErbB3 complex with anti-ErbB3 antibody Immunoprecipitated materials were analyzed by Western blotting using antibodies specific to ErbB3, phosphorylated ErbB3, or integrin β3. The levels of ErbB3 phosphorylation were less with the 3KE mutant (175-241). Integrin αvβ3 was co-immuno-precipitated with the ErbB3 in 5-30 min upon stimulation with WT NRG1α (175-241), while the 3KE (175-241) mutant was defective in this function. b) Levels of β3 coprecipitation. In the present invention, the levels of β3 co-precipitation from digital images was quantified using ImageJ. The data are normalized with time 0 as 1 from two independent experiments.
Five minutes to 3 h after treatment with 5 nM WT or 3KE mutant NRG1α (175-241), MCF-7 cells were washed with ice-cold PBS and lysed with lysis buffer. The cell lysate was incubated with anti-ErbB3 overnight at 4° C. The immune complex was recovered by incubating with protein A Sepharose (GE Healthcare) for 1 hour at 4° C. and washed three times with wash buffer (20 mM HEPES (pH 7.4), 100 mM NaCl, 10% Glycerol, 0.5% NP-40, 1 mM MgCl2, 5 mM EDTA, 0.5% Triton X-100, 1 mM phenylmethylsulfonyl fluoride, 20 mM NaF, 1 mM Na3VO4, protease inhibitor cocktail (Sigma-Aldrich)). The immunoprecipitates were analyzed by western blotting with antibodies specific to integrin β3.

T2 sequence (P21860 20-1342, one chain of several): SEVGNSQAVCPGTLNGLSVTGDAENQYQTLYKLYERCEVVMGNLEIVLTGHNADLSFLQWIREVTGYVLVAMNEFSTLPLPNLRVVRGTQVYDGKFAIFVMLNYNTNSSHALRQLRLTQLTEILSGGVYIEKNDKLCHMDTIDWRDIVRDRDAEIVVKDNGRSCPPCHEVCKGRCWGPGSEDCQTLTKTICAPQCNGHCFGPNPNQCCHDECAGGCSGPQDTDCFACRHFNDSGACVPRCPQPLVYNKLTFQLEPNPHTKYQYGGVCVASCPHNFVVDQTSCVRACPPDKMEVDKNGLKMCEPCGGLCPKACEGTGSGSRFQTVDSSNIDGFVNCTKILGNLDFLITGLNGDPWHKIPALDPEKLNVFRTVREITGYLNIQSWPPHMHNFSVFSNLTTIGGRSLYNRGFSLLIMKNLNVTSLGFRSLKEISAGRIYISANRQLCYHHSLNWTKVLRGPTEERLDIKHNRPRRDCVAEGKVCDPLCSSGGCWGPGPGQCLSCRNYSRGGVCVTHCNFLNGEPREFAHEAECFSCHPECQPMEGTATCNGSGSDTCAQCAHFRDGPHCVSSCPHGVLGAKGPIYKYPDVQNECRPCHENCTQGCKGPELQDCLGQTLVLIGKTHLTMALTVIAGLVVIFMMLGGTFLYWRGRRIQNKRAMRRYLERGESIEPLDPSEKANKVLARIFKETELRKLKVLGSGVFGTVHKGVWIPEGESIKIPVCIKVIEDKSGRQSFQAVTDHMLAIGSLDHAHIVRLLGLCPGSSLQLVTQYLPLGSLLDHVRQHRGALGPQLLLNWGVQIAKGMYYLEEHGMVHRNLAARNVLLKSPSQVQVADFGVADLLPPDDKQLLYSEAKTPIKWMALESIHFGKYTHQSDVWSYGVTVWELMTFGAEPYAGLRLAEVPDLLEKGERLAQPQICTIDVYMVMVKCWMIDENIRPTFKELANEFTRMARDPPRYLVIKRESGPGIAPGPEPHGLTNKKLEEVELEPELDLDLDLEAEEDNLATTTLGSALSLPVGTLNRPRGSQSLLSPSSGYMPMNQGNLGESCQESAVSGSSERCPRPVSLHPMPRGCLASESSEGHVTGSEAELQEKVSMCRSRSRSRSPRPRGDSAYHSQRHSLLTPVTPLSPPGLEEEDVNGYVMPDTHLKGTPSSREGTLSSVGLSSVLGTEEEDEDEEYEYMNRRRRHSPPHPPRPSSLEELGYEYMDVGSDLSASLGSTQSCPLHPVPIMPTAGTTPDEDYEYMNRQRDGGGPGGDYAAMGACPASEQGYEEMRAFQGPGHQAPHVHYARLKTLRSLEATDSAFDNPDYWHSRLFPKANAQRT
T2 sequence (P06756 31-1048, one chain of several): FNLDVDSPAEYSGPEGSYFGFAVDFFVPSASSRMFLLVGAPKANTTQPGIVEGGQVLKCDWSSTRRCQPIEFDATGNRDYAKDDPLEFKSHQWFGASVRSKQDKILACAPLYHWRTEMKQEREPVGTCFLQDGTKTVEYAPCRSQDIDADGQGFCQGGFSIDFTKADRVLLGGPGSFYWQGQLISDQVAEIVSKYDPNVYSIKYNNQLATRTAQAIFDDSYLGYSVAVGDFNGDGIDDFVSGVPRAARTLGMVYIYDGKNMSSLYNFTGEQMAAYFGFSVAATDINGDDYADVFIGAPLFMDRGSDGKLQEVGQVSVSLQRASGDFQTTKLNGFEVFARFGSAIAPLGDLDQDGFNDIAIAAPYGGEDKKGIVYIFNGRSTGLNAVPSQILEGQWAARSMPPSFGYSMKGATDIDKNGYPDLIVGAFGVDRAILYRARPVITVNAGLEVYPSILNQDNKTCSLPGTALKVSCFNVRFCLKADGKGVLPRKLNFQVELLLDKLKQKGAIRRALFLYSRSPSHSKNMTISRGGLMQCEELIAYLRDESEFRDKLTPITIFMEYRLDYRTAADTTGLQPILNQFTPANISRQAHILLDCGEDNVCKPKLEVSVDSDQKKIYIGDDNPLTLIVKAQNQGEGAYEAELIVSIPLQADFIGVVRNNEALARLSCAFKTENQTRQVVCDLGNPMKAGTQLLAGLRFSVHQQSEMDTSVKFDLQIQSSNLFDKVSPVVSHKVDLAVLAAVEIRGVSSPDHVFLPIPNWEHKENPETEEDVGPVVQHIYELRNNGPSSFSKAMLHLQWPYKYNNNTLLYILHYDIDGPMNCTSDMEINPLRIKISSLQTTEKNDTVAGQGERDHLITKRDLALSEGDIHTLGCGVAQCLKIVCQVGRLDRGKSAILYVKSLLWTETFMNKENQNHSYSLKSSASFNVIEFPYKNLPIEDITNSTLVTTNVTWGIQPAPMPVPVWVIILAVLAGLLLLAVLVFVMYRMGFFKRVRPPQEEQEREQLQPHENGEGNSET

Molecule	cyclin D1 levels in M21 cells (M21 human melanoma cells)	ERK1/2 activation in M21 cells (M21 human melanoma cells)	ErbB3 phosphorylation in M21 cells (M21 human melanoma cells)	Induction of proliferation of MCF-7 cells [1]	Adhesion of β3-CHO cells to the immobilized protein [2]	ERK1/2 activation in M21 cells (M21 human melanoma cells; listed as Wt NRG1 (175-222))	Co-precipitation of integrin β3 with ErbB3 in MCF-7 cells (αvβ3-ErbB3 complex)	Levels of ErbB3 phosphorylation in anti-ErbB3 immunoprecipitates of MCF-7 cells (αvβ3-ErbB3 complex; compared with WT NRG1α (175-241))
3KE (175-222): NRG1 (175-222) with Lys181/Lys185/Lys187 mutated to Glu; GTSHLVECAEEEETFCVNGGECFMVKDLSNPSRYLCKCQPGFTGARCT (SEQ ID NO:11) (integrin-binding site within human neuregulin, 3KE mutant, short version)	suppressed	did not induce the level of ERK1/2 activation; also recorded: suppressed ERK1/2 activation	did not induced ErbB3 phosphorylation	did not				
wt NRG1 (175-222): wild type human neuregulin 1 fragment, EGF-like domain, residues 175-222 of SEQ ID NO:4 (SEQ ID NO:3) (GTSHLVKCAEKEKTFCVNGGECFMVKDLSNPSRYLCKCQPGFTGARCT; integrin-binding site within human neuregulin 1 EGF-like region and portion of alpha domain, residues 175-222 of human neuregulin 1 alpha) [reference compound]		enhanced the level of ERK1/2 activation	induced ErbB3 phosphorylation	induced cell proliferation	adhered to NRG1 (175-222)	induced		
B1					adhered to NRG1α (175-241)		increased the amount of integrin β3 protein that co-precipitates with ErbB3	
B2							did not	less
